Data on 21 compounds can be found in the supplement of paper PMC8498969.

In assay [1] the test system is HEK293. As to the kind of experiment: maximal inhibition of ZIKV NS1 production (% inhibition); higher = stronger antiviral effect. The protocol: (§1)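 HEK293 cells in 1536-well plates were pre-treated with compound for 1 h, infected with ZIKV (MOI 1) for 24 h, and NS1 antigen (intra- plus extracellular) was measured by TR-FRET. Confirmation used 11-point 1:3 dilutions, and IC50 and maximal inhibition were fitted in GraphPad Prism.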

Assay [2] deals with HEK293. Description: cytotoxicity IC50 (ATP content, uninfected cells); higher = less cytotoxic. Particulars: infection: none.
Assay [3] has as its system HEK293. As to the kind of experiment: IC50 for inhibition of ZIKV NS1 production. The procedure: as §1

Where only a bound is given, the exact number is not on record here.

By IC50 is commonly meant the concentration that gives 50% inhibition. Turning to `CN(C)CCN(C)C(=O)c1ccc(NC(=O)Nc2ccc(-c3nc(N4CCOCC4)c4ccn(CC(F)(F)F)c4n3)cc2)cc1`, the maximal inhibition in assay [1] was 76. Further, in assay [2], the “cytotoxicity IC50” value worked out at 3.4 µM. In assay [3], this compound yielded an IC50 of 2.9 µM.

In turn, `Oc1ccc(-c2ccc(-c3cc(Nc4cccc(CNC5CC5)c4)n[nH]3)cc2)c(O)c1` registered a maximal inhibition in assay [1] of 108. The “cytotoxicity IC50” value in assay [2] was 27 µM. For the same compound, the IC50 in assay [3] worked out at 1.5 µM.

In assay [1], `CN(Cc1cnc2nc(N)nc(N)c2n1)c1ccc(C(=O)N[C@@H](CCC(=O)O)C(=O)O)cc1` returned a maximal inhibition of 95. The “cytotoxicity IC50” value in assay [2] came to 0.24 µM. In addition, the IC50 in assay [3] was determined as 0.46 µM.

In assay [1], `Cc1ccc([N+](=O)[O-])cc1S(=O)(=O)N(C)/N=C/c1cnc2ccc(Br)cn12` yielded a maximal inhibition of 101. The “cytotoxicity IC50” value in assay [2] was above 100 µM. The compound further showed a half-inhibitory concentration (IC50) in assay [3] of 0.62 µM.

In assay [1], `Cc1c2oc3c(C)ccc(C(=O)N[C@@H]4C(=O)N[C@H](C(C)C)C(=O)N5CCC[C@H]5C(=O)N(C)CC(=O)N(C)[C@@H](C(C)C)C(=O)O[C@@H]4C)c3nc-2c(C(=O)N[C@@H]2C(=O)N[C@H](C(C)C)C(=O)N3CCC[C@H]3C(=O)N(C)CC(=O)N(C)[C@@H](C(C)C)C(=O)O[C@@H]2C)c(N)c1=O` displayed a maximal inhibition of 99. Also, in assay [2], the “cytotoxicity IC50” value is above 100 µM. In assay [3], the IC50 was determined as 0.35 µM.

`Cn1cc(-c2[nH]c3cc(NC(=O)[C@H](N)C4CCCCC4)cc4c3c2C=NNC4=O)cn1` gave a maximal inhibition in assay [1] of 104. Besides, in assay [2], the “cytotoxicity IC50” value was above 100 µM. In assay [3], the IC50 stood at 0.49 µM.

The compound `O=C(Nc1cc(C(F)(F)F)cc(C(F)(F)F)c1)c1cc(Cl)ccc1O` yielded a maximal inhibition in assay [1] of 99. Moreover, in assay [2], the “cytotoxicity IC50” value came out at 0.71 µM. In assay [3], this compound displayed an IC50 of 3.9 µM.

Compound `COc1cccc2c1C(=O)c1c(O)c3c(c(O)c1C2=O)C[C@@](O)(C(=O)CO)C[C@@H]3O[C@H]1C[C@H](N)[C@@H](O)[C@H](C)O1` gave a maximal inhibition in assay [1] of 84. Also, in assay [2], the “cytotoxicity IC50” value is above 100 µM. Further, in assay [3], the IC50 amounted to 0.49 µM.

For `C=C1C(=O)O[C@H]2[C@H]1CC/C(C)=C/CC[C@@]1(C)O[C@@H]21`, the maximal inhibition in assay [1] amounted to 106. In addition, in assay [2], the “cytotoxicity IC50” value turned out to be 20 µM. In assay [3], this compound returned an IC50 of 43 µM.

Take `C[C@@H]1O[C@@H](O[C@@H]2C=C3CC[C@@H]4[C@H](CC[C@]5(C)[C@@H](c6ccc(=O)oc6)CC[C@]45O)[C@@]3(C)CC2)[C@H](O)[C@H](O)[C@H]1O`: the maximal inhibition in assay [1] was determined as 105. For the same compound, the “cytotoxicity IC50” value in assay [2] was found to be 0.011 µM. In addition, the IC50 in assay [3] came to 0.027 µM.

For the compound `O=c1[nH]c(=O)n([C@H]2C[C@H](O)[C@@H](CO)O2)cc1F`, the maximal inhibition in assay [1] came out at 98. For the same compound, in assay [2], the “cytotoxicity IC50” value amounted to 60 µM. In assay [3], the IC50 is 0.92 µM.

In assay [1], `CC1=C(O)C(=O)C=C2C1=CC=C1[C@@]2(C)CC[C@@]2(C)[C@@H]3C[C@](C)(C(=O)O)CC[C@]3(C)CC[C@]12C` returned a maximal inhibition of 106. The “cytotoxicity IC50” value in assay [2] came out at 2.2 µM. The IC50 in assay [3] was 3.4 µM.

As to `O=C1c2c(O)ccc(O)c2C(=O)c2c(NCCNCCO)ccc(NCCNCCO)c21`, the maximal inhibition in assay [1] stood at 100. Also, the “cytotoxicity IC50” value in assay [2] was determined as 50 µM. This compound also registered a concentration for half-maximal inhibition (IC50) in assay [3] of 0.23 µM.

In turn, `CCC1=C[C@@H]2CN(C1)Cc1c([nH]c3ccccc13)[C@@](C(=O)OC)(c1cc3c(cc1OC)N(C)[C@H]1[C@@](O)(C(=O)OC)[C@H](OC(C)=O)[C@]4(CC)C=CCN5CC[C@]31[C@@H]54)C2` yielded a maximal inhibition in assay [1] of 95. In addition, in assay [2], the “cytotoxicity IC50” value is above 100 µM. In assay [3], this compound had an IC50 of 0.27 µM.

In assay [1], `CCc1c2c(nc3ccc(OC(=O)N4CCC(N5CCCCC5)CC4)cc13)-c1cc3c(c(=O)n1C2)COC(=O)[C@]3(O)CC` displayed a maximal inhibition of 97. For the same compound, the “cytotoxicity IC50” value in assay [2] was above 100 µM. The compound also gave an IC50 in assay [3] of 1.6 µM.

Turning to `COc1cccc2c1C(=O)c1c(O)c3c(c(O)c1C2=O)C[C@@](O)(C(C)=O)C[C@@H]3O[C@H]1C[C@H](N)[C@H](O)[C@H](C)O1`, the maximal inhibition in assay [1] came out at 66. For the same compound, in assay [2], the “cytotoxicity IC50” value was above 100 µM. This compound also registered a half-maximal inhibitory concentration (IC50) in assay [3] of 0.54 µM.

In assay [1], `O=C1C(Cl)=C(NCCN2CCOCC2)C(=O)c2ncccc21` displayed a maximal inhibition of 104. In assay [2], the “cytotoxicity IC50” value is 20 µM. For the same compound, the IC50 in assay [3] was 16 µM.

On to `CC1=C(CO)C(=O)O[C@@H]([C@@H](C)[C@H]2CC[C@H]3[C@@H]4C[C@H]5O[C@]56[C@@H](O)C=CC(=O)[C@]6(C)[C@H]4CC[C@]23C)C1`, for which, in assay [1], the maximal inhibition was determined as 102. Further, the “cytotoxicity IC50” value in assay [2] was 2.8 µM. Further, the IC50 in assay [3] came to 2.8 µM.

Compound `CC(C)C[C@H](NC(=O)[C@@H](NC(=O)c1cccc(-c2ccccc2)n1)[C@@H](C)O)B(O)O` came in with a maximal inhibition in assay [1] of 95. The “cytotoxicity IC50” value in assay [2] came to 0.3 µM. Besides, the concentration for half-maximal inhibition (IC50) in assay [3] turned out to be 0.059 µM.

In assay [1], `COCC[n+]1c2c(n(Cc3cnccn3)c1C)C(=O)c1ccccc1C2=O` displayed a maximal inhibition of 104. Further, the “cytotoxicity IC50” value in assay [2] worked out at 0.03 µM. This compound also had an IC50 in assay [3] of 0.018 µM.

`O=C1NCCc2[nH]c(-c3ccncc3)cc21`: in assay [1], the maximal inhibition was 85. The “cytotoxicity IC50” value in assay [2] is above 100 µM. In addition, the IC50 in assay [3] amounted to 20 µM.
